According to paper PMC11945486, “TAS1R2/TAS1R3 Single-Nucleotide Polymorphisms Affect Sweet Taste Receptor Activation by Sweeteners: The SWEET Project” (Nutrients, 2025):
No end group written: not given here.

T1: human TAS1R2-K689Q/TAS1R3-WT (Homo sapiens, UniProt Q7RTX0+Q8TE23, K689Q)
T1 construct: expressed in transfected cells; host or cells: HEK293T-Gα16gust44
T1 sequence (Q8TE23 20-839 K689Q): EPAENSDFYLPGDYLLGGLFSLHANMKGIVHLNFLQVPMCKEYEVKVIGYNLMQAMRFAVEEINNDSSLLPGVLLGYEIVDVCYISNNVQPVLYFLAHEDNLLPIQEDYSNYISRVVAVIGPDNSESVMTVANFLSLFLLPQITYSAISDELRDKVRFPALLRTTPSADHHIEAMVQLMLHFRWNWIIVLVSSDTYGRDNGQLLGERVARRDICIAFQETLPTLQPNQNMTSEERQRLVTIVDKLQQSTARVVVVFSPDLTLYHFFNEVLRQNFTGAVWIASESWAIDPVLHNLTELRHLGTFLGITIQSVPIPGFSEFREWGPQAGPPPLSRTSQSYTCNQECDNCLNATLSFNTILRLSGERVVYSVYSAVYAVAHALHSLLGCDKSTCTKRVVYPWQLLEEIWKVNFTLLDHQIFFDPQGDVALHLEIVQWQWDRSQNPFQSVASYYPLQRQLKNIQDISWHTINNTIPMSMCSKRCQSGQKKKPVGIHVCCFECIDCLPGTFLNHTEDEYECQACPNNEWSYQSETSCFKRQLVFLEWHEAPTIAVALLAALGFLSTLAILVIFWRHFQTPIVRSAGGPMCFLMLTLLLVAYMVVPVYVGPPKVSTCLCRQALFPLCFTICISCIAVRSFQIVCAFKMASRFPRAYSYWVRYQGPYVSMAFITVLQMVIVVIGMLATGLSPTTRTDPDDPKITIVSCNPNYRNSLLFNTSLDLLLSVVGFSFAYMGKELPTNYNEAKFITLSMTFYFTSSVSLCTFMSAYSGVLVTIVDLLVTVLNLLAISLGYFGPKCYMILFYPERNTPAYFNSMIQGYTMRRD
T1 sequence (Q7RTX0 21-852): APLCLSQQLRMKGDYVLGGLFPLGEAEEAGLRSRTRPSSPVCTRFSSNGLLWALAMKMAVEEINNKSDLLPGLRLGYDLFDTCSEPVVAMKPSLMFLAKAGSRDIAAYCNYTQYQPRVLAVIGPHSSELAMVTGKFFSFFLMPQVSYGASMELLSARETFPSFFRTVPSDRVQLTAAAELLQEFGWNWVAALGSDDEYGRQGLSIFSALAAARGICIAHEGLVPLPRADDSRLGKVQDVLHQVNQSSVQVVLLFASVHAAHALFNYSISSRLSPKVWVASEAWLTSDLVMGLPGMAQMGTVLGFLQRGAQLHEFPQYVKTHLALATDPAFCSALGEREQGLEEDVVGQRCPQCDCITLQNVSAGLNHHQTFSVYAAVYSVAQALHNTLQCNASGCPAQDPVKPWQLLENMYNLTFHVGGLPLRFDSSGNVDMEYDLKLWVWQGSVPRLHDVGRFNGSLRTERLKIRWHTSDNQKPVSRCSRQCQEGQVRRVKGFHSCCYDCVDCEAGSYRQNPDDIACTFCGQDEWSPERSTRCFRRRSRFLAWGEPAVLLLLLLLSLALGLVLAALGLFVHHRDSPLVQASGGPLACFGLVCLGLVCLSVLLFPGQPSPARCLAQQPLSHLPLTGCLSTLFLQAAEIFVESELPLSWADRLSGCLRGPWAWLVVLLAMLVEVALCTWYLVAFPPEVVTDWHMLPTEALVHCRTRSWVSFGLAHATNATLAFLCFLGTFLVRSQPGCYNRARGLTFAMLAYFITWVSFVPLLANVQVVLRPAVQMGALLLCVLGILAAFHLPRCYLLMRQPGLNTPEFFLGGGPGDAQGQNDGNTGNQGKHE


Target: T1, human TAS1R2-K689Q/TAS1R3-WT
Experiment: Calcium mobilisation assay, TAS1R2 variant K689Q with TAS1R3-WT
Assay type: cell-based
Details: "-": no activation; for Max ΔF/F0: maximal signal amplitude; for EC50: "nd": not determined
From the text: The coding sequences for TAS1R2 and TAS1R3 were commercially synthesised, and the human codon was optimised for expression in human cells. The coding sequences of human TAS1R2 and TAS1R3 were subcloned and inserted into the mammalian expression vectors pcDNA6/myc-HisA and pcDNA4/myc-HisA (Invitrogen; Thermo Fisher Scientific; Illkirch, France) between the EcoRI and NotI restriction sites, generating the plasmids pcDNA6-TAS1R2 and pcDNA4-TAS1R3, respectively. To increase protein expression in mammalian cells, an upstream start codon was used, which was a sequence called MAX, corresponding to the QBI SP163 element also described in pcDNA4-HisMax (Invitrogen; Thermo Fisher Scientific; Illkirch, France). To measure the expression level of the receptor by immunohistochemistry, we used the FLAG sequence ([…]) in the C-terminal position, which encodes the FLAG tag epitope. SNP variants of TAS1R2 and TAS1R3 were constructed based on […], respectively, using site-directed mutagenesis (Genewiz; Leipzig, Germany).
The HEK293T cells were kindly provided by Jay P. Slack (Givaudan Flavors Corporation; Cincinnati, OH, USA). HEK293T cells stably transfected with Gα16gust44 [43, 67] were seeded in poly-D-lysine-coated clear-bottom black 96-well plates (0.35 × 10^5 cells/well) in high-glucose DMEM supplemented with 2 mM GlutaMAX, 10% dialysed foetal bovine serum with penicillin/streptomycin and G418 (400 μg/mL) at 37 °C and 6.3% CO2 in a humidified atmosphere as previously reported. […] As a negative control, HEK293T cells were mock-transfected with the empty expression vector. After a further 24 h of incubation, the HEK293T cells were washed with C1 buffer (130 mM NaCl, 5 mM KCl, 10 mM HEPES pH 7.4 and 2 mM CaCl2). The 96-well plates containing the cells were then stimulated with sweet-tasting compounds. […] Different concentration ranges were tested depending on the sweet compound injected. The Ca^2+ changes were expressed as fractional changes in fluorescent light intensity: ΔF/F = (F − F0)/F0, where F was the fluorescent light intensity at each point, and F0 was the value of emitted fluorescent light prior to stimulus application. To calculate dose–response relationships, the changes in fluorescence upon stimulus application were averaged, mock-subtracted and baseline-corrected. The dose–response data obtained were adjusted using a 4-parameter logistic equation. The half-maximal effective concentrations (EC50 values) and maximal signal amplitudes were calculated using SigmaPlot software (version 15.0) (Systat Software; San Jose, CA, USA).
For in vitro calcium mobilisation assay performed on hTAS1R2-SNPs, hTAS1R3-SNPs and mTAS1R3-I60T, 6 to 7 concentrations were tested for each sweet compound, plus buffer alone. All concentration–receptor combinations were measured in duplicate, and each experiment was repeated at least 4 times (8 wells/concentration). Results were expressed for each concentration as ΔF/F mean ± SEM and represented as dose–response curves.

Row | R1 = Variant EC50/WT EC50 | Max ΔF/F0 | EC50 [µM] | Molecule
1 | 4.3 | 0.02 | – | CC1=CC(=O)NS(=O)(=O)O1 [Acesulfame K, acesulfame K]
2 | – | – | > 1000 | COc1ccc(CCC(=O)c2c(O)cc(O[C@@H]3O[C@H](CO)[C@@H](O)[C@H](O)[C@H]3O[C@@H]3O[C@@H](C)[C@H](O)[C@@H](O)[C@H]3O)cc2O)cc1O [NHDC, neohesperidin dihydrochalcone]
3 | 4.3 | 0.12 ± 0.01 | 3.58 ± 0.46 | COC(=O)[C@H](Cc1ccccc1)NC(=O)[C@H](CC(=O)O)NCCC(C)(C)C [Neotame]
4 | 7.6 | 1.36 ± 0.01 | 132 ± 16.9 | C=C(C)[C@@H]1CC=C(/C=N/O)CC1 [Perillartine, perillartine]
5 | 4.5 | 0.36 ± 0.01 | 75.8 ± 2.3 | C=C1C[C@@]23CC[C@H]4[C@@](C)(CCC[C@@]4(C)C(=O)O[C@@H]4O[C@H](CO)[C@@H](O)[C@H](O[C@@H]5O[C@H](CO)[C@@H](O)[C@H](O)[C@H]5O)[C@H]4O[C@@H]4O[C@H](CO)[C@@H](O)[C@H](O)[C@H]4O)[C@@H]2CC[C@]1(O[C@@H]1O[C@H](CO)[C@@H](O)[C@H](O[C@@H]2O[C@H](CO)[C@@H](O)[C@H](O)[C@H]2O)[C@H]1O[C@@H]1O[C@H](CO)[C@@H](O)[C@H](O)[C@H]1O)C3 [Rebaudioside M, rebaudioside M]
6 | 3.4 | 0.08 ± 0.01 | 307 | OC[C@H]1O[C@H](O[C@]2(CCl)O[C@H](CCl)[C@@H](O)[C@@H]2O)[C@H](O)[C@@H](O)[C@H]1Cl [Sucralose]
7 | 5.7 | 0.64 ± 0.03 | – | brazzein (QDKCKKVYENYPVSKCQLANQCNYDCKLDKHARSGECFYDEKRNLQCICDYCEY; ends and bridges not checked; cysteine pairing not given here; UniProt P56552 1-54, looked up) [sweet-tasting protein obtained by recombinant production using the yeast Pichia pastoris]
8 | 4.4 | 0.87 ± 0.09 | – | thaumatin
9 | – | – | 33.5 | thaumatin (protein, Eight disulfides, sweet-tasting plant protein, E957) ATFEIVNRCSYTVWAAASKGDAALDAGGRQLNSGESWTINVEPGTKGGKIWARTDCYFDDSGSGICKTGDCGGLLRCKRFGRPPTTLAEFSLNQYGKDYIDISNIKGFNVPMDFSPTTRGCRGVRCAADIVGQCPAKLKAPGGGCNDACTVFQTSEYCCTTGKCGPTEYSRFFKRLCPDAFSYVLDKPTTVTCPGSSNYRVTFCPTA

Row | Molecule | R1 = Variant EC50/WT EC50 | Max ΔF/F0 | EC50 [µM]
10 | O=S(=O)(O)NC1CCCCC1 [Cyclamate, cyclamate] | – | – | 5010 ± 220
11 | C[C@H](CC[C@@H](O[C@@H]1O[C@H](CO[C@@H]2O[C@H](CO)[C@@H](O)[C@H](O)[C@H]2O)[C@@H](O)[C@H](O)[C@H]1O[C@@H]1O[C@H](CO)[C@@H](O)[C@H](O)[C@H]1O)C(C)(C)O)[C@H]1CC[C@@]2(C)[C@@H]3CC=C4[C@@H](CC[C@H](O[C@@H]5O[C@H](CO[C@@H]6O[C@H](CO)[C@@H](O)[C@H](O)[C@H]6O)[C@@H](O)[C@H](O)[C@H]5O)C4(C)C)[C@]3(C)[C@H](O)C[C@]12C [Mogroside V, mogroside V] | 3.3 | 0.54 ± 0.01 | 57.9 ± 0.4
